From patent US20230017045A1, “PYRIDINE AND PYRIMIDINE CARBOXYLATE HERBICIDES AND METHODS OF USE THEREOF” (Dow AgroSciences LLC, priority 2017, published 2023)

Test system: test plant species
Assay: Post-emergent herbicidal activity test (greenhouse, foliar spray, visual growth reduction)
Type: in vivo
Conditions: post-emergence, 336 h, ECHCG: barnyardgrass (Echinochloa crus-galli), 140 g ai/ha, 14 days after application, read-out: Visual Growth Reduction (%) 14 Days After Application, ECHCG
How it was run: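 Greenhouse plants at first–second true leaf stage sprayed overhead at 187 L/ha with compound in acetone/water/isopropanol/DMSO/crop oil/X-77 carrier; controls received solvent blank. Injury rated visually after 14 d on a 0–100% scale versus untreated and control plants, converted to growth reduction.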

| SMILES | pest or weed control at 140 g/ha |
| --- | --- |
| O=C(OCc1ccccc1C(F)(F)F)c1nc(-c2ccc(C(F)(F)F)cc2Cl)ccc1Cl [F380, 2-(Trifluoromethyl) benzyl 3-chloro-6-(2-chloro-4-(trifluoromethyl)phenyl)picolinate] | 75 to 84% |
| COC(=O)c1nc(-c2ccc([S+](C)[O-])cc2)c(F)cc1Cl (centres unmarked) [F263, Methyl 3-chloro-5-fluoro-6-(4-(methylsulfinyl)phenyl)picolinate] | 0 to 29% |
| COC(=O)c1nc(-c2cc3c(cc2F)OC(F)(F)O3)c(F)cc1OC [F336, Methyl 5-fluoro-3-methoxy-6-(2,2,6-trifluorobenzo[d][1,3]dioxol-5-yl)picolinate] | 0 to 29% |

Same assay, conditions: post-emergence, 336 h, IPOHE: ivy-leaf morning glory (Ipomoea hederacea), 140 g ai/ha, 14 days after application, read-out: Visual Growth Reduction (%) 14 Days After Application, IPOHE

| SMILES | pest or weed control at 140 g/ha |
| --- | --- |
| O=C(OCc1ccccc1C(F)(F)F)c1nc(-c2ccc(C(F)(F)F)cc2Cl)ccc1Cl [F380, 2-(Trifluoromethyl) benzyl 3-chloro-6-(2-chloro-4-(trifluoromethyl)phenyl)picolinate] | 95 to 100% |
| COC(=O)c1nc(-c2ccc([S+](C)[O-])cc2)c(F)cc1Cl (centres unmarked) [F263, Methyl 3-chloro-5-fluoro-6-(4-(methylsulfinyl)phenyl)picolinate] | 0 to 29% |
| COC(=O)c1nc(-c2cc3c(cc2F)OC(F)(F)O3)c(F)cc1OC [F336, Methyl 5-fluoro-3-methoxy-6-(2,2,6-trifluorobenzo[d][1,3]dioxol-5-yl)picolinate] | 0 to 29% |

Same assay, conditions: post-emergence, 336 h, KCHSC: kochia (Bassia scoparia), 140 g ai/ha, 14 days after application, read-out: Visual Growth Reduction (%) 14 Days After Application, KCHSC

| SMILES | pest or weed control at 140 g/ha |
| --- | --- |
| O=C(OCc1ccccc1C(F)(F)F)c1nc(-c2ccc(C(F)(F)F)cc2Cl)ccc1Cl [F380, 2-(Trifluoromethyl) benzyl 3-chloro-6-(2-chloro-4-(trifluoromethyl)phenyl)picolinate] | 75 to 84% |
| COC(=O)c1nc(-c2ccc([S+](C)[O-])cc2)c(F)cc1Cl (centres unmarked) [F263, Methyl 3-chloro-5-fluoro-6-(4-(methylsulfinyl)phenyl)picolinate] | 0 to 29% |
| COC(=O)c1nc(-c2cc3c(cc2F)OC(F)(F)O3)c(F)cc1OC [F336, Methyl 5-fluoro-3-methoxy-6-(2,2,6-trifluorobenzo[d][1,3]dioxol-5-yl)picolinate] | 0 to 29% |

Same assay, conditions: post-emergence, 336 h, ORYSA: rice (Oryza sativa), 140 g ai/ha, 14 days after application, read-out: Visual Growth Reduction (%) 14 Days After Application, ORYSA

| SMILES | pest or weed control at 140 g/ha |
| --- | --- |
| O=C(OCc1ccccc1C(F)(F)F)c1nc(-c2ccc(C(F)(F)F)cc2Cl)ccc1Cl [F380, 2-(Trifluoromethyl) benzyl 3-chloro-6-(2-chloro-4-(trifluoromethyl)phenyl)picolinate] | 0 to 29% |
| COC(=O)c1nc(-c2ccc([S+](C)[O-])cc2)c(F)cc1Cl (centres unmarked) [F263, Methyl 3-chloro-5-fluoro-6-(4-(methylsulfinyl)phenyl)picolinate] | 0 to 29% |
| COC(=O)c1nc(-c2cc3c(cc2F)OC(F)(F)O3)c(F)cc1OC [F336, Methyl 5-fluoro-3-methoxy-6-(2,2,6-trifluorobenzo[d][1,3]dioxol-5-yl)picolinate] | 0 to 29% |

Same assay, conditions: post-emergence, 336 h, SETFA: giant foxtail (Setaria faberi), 140 g ai/ha, 14 days after application, read-out: Visual Growth Reduction (%) 14 Days After Application, SETFA

| SMILES | pest or weed control at 140 g/ha |
| --- | --- |
| O=C(OCc1ccccc1C(F)(F)F)c1nc(-c2ccc(C(F)(F)F)cc2Cl)ccc1Cl [F380, 2-(Trifluoromethyl) benzyl 3-chloro-6-(2-chloro-4-(trifluoromethyl)phenyl)picolinate] | 95 to 100% |
| COC(=O)c1nc(-c2ccc([S+](C)[O-])cc2)c(F)cc1Cl (centres unmarked) [F263, Methyl 3-chloro-5-fluoro-6-(4-(methylsulfinyl)phenyl)picolinate] | 0 to 29% |
| COC(=O)c1nc(-c2cc3c(cc2F)OC(F)(F)O3)c(F)cc1OC [F336, Methyl 5-fluoro-3-methoxy-6-(2,2,6-trifluorobenzo[d][1,3]dioxol-5-yl)picolinate] | 0 to 29% |

Same assay, conditions: post-emergence, 336 h, SORVU: grain sorghum (Sorghum vulgare), 140 g ai/ha, 14 days after application, read-out: Visual Growth Reduction (%) 14 Days After Application, SORVU

| SMILES | pest or weed control at 140 g/ha |
| --- | --- |
| O=C(OCc1ccccc1C(F)(F)F)c1nc(-c2ccc(C(F)(F)F)cc2Cl)ccc1Cl [F380, 2-(Trifluoromethyl) benzyl 3-chloro-6-(2-chloro-4-(trifluoromethyl)phenyl)picolinate] | 95 to 100% |
| COC(=O)c1nc(-c2ccc([S+](C)[O-])cc2)c(F)cc1Cl (centres unmarked) [F263, Methyl 3-chloro-5-fluoro-6-(4-(methylsulfinyl)phenyl)picolinate] | 0 to 29% |
| COC(=O)c1nc(-c2cc3c(cc2F)OC(F)(F)O3)c(F)cc1OC [F336, Methyl 5-fluoro-3-methoxy-6-(2,2,6-trifluorobenzo[d][1,3]dioxol-5-yl)picolinate] | 75 to 84% |

Same assay, conditions: post-emergence, 336 h, STEME: common chickweed (Stellaria media), 140 g ai/ha, 14 days after application, read-out: Visual Growth Reduction (%) 14 Days After Application, STEME

| SMILES | pest or weed control at 140 g/ha |
| --- | --- |
| O=C(OCc1ccccc1C(F)(F)F)c1nc(-c2ccc(C(F)(F)F)cc2Cl)ccc1Cl [F380, 2-(Trifluoromethyl) benzyl 3-chloro-6-(2-chloro-4-(trifluoromethyl)phenyl)picolinate] | 0 to 29% |
| COC(=O)c1nc(-c2ccc([S+](C)[O-])cc2)c(F)cc1Cl (centres unmarked) [F263, Methyl 3-chloro-5-fluoro-6-(4-(methylsulfinyl)phenyl)picolinate] | 0 to 29% |
| COC(=O)c1nc(-c2cc3c(cc2F)OC(F)(F)O3)c(F)cc1OC [F336, Methyl 5-fluoro-3-methoxy-6-(2,2,6-trifluorobenzo[d][1,3]dioxol-5-yl)picolinate] | 0 to 29% |

Same assay, conditions: post-emergence, 336 h, TRZAS: wheat, spring (Triticum aestivum), 140 g ai/ha, 14 days after application, read-out: Visual Growth Reduction (%) 14 Days After Application, TRZAS

| SMILES | pest or weed control at 140 g/ha |
| --- | --- |
| O=C(OCc1ccccc1C(F)(F)F)c1nc(-c2ccc(C(F)(F)F)cc2Cl)ccc1Cl [F380, 2-(Trifluoromethyl) benzyl 3-chloro-6-(2-chloro-4-(trifluoromethyl)phenyl)picolinate] | 60 to 74% |
| COC(=O)c1nc(-c2ccc([S+](C)[O-])cc2)c(F)cc1Cl (centres unmarked) [F263, Methyl 3-chloro-5-fluoro-6-(4-(methylsulfinyl)phenyl)picolinate] | 0 to 29% |
| COC(=O)c1nc(-c2cc3c(cc2F)OC(F)(F)O3)c(F)cc1OC [F336, Methyl 5-fluoro-3-methoxy-6-(2,2,6-trifluorobenzo[d][1,3]dioxol-5-yl)picolinate] | 30 to 44% |

Same assay, conditions: post-emergence, 336 h, blackgrass (Alopecurus myosuroides), 14 Days After Application, 140 g ai/ha, read-out: Visual Growth Reduction (%) ALOMY

| SMILES | pest or weed control at 140 g/ha |
| --- | --- |
| O=C(OCc1ccccc1C(F)(F)F)c1nc(-c2ccc(C(F)(F)F)cc2Cl)ccc1Cl [F380, 2-(Trifluoromethyl) benzyl 3-chloro-6-(2-chloro-4-(trifluoromethyl)phenyl)picolinate] | 45 to 59% |
| COC(=O)c1nc(-c2ccc([S+](C)[O-])cc2)c(F)cc1Cl (centres unmarked) [F263, Methyl 3-chloro-5-fluoro-6-(4-(methylsulfinyl)phenyl)picolinate] | 0 to 29% |
| COC(=O)c1nc(-c2cc3c(cc2F)OC(F)(F)O3)c(F)cc1OC [F336, Methyl 5-fluoro-3-methoxy-6-(2,2,6-trifluorobenzo[d][1,3]dioxol-5-yl)picolinate] | 0 to 29% |

Same assay, conditions: post-emergence, 336 h, canada thistle (Cirsium arvense), 14 Days After Application, 140 g ai/ha, read-out: Visual Growth Reduction (%) CIRAR

| SMILES | pest or weed control at 140 g/ha |
| --- | --- |
| O=C(OCc1ccccc1C(F)(F)F)c1nc(-c2ccc(C(F)(F)F)cc2Cl)ccc1Cl [F380, 2-(Trifluoromethyl) benzyl 3-chloro-6-(2-chloro-4-(trifluoromethyl)phenyl)picolinate] | 85 to 94% |
| COC(=O)c1nc(-c2ccc([S+](C)[O-])cc2)c(F)cc1Cl (centres unmarked) [F263, Methyl 3-chloro-5-fluoro-6-(4-(methylsulfinyl)phenyl)picolinate] | 0 to 29% |

Same assay, conditions: post-emergence, 336 h, crabgrass (Digitaria sanguinalis), 14 Days After Application, 140 g ai/ha, read-out: Visual Growth Reduction (%) DIGSA

| SMILES | pest or weed control at 140 g/ha |
| --- | --- |
| O=C(OCc1ccccc1C(F)(F)F)c1nc(-c2ccc(C(F)(F)F)cc2Cl)ccc1Cl [F380, 2-(Trifluoromethyl) benzyl 3-chloro-6-(2-chloro-4-(trifluoromethyl)phenyl)picolinate] | 95 to 100% |
| COC(=O)c1nc(-c2ccc([S+](C)[O-])cc2)c(F)cc1Cl (centres unmarked) [F263, Methyl 3-chloro-5-fluoro-6-(4-(methylsulfinyl)phenyl)picolinate] | 0 to 29% |
| COC(=O)c1nc(-c2cc3c(cc2F)OC(F)(F)O3)c(F)cc1OC [F336, Methyl 5-fluoro-3-methoxy-6-(2,2,6-trifluorobenzo[d][1,3]dioxol-5-yl)picolinate] | 60 to 74% |

Same assay, conditions: post-emergence, 336 h, lambsquarters (Chenopodium album), 14 Days After Application, 140 g ai/ha, read-out: Visual Growth Reduction (%) CHEAL

| SMILES | pest or weed control at 140 g/ha |
| --- | --- |
| O=C(OCc1ccccc1C(F)(F)F)c1nc(-c2ccc(C(F)(F)F)cc2Cl)ccc1Cl [F380, 2-(Trifluoromethyl) benzyl 3-chloro-6-(2-chloro-4-(trifluoromethyl)phenyl)picolinate] | 95 to 100% |
| COC(=O)c1nc(-c2ccc([S+](C)[O-])cc2)c(F)cc1Cl (centres unmarked) [F263, Methyl 3-chloro-5-fluoro-6-(4-(methylsulfinyl)phenyl)picolinate] | 0 to 29% |
| COC(=O)c1nc(-c2cc3c(cc2F)OC(F)(F)O3)c(F)cc1OC [F336, Methyl 5-fluoro-3-methoxy-6-(2,2,6-trifluorobenzo[d][1,3]dioxol-5-yl)picolinate] | 30 to 44% |

Same assay, conditions: post-emergence, 336 h, redroot pigweed (Amaranthus retroflexus), 14 Days After Application, 140 g ai/ha, read-out: Visual Growth Reduction (%) AMARE

| SMILES | pest or weed control at 140 g/ha |
| --- | --- |
| O=C(OCc1ccccc1C(F)(F)F)c1nc(-c2ccc(C(F)(F)F)cc2Cl)ccc1Cl [F380, 2-(Trifluoromethyl) benzyl 3-chloro-6-(2-chloro-4-(trifluoromethyl)phenyl)picolinate] | 95 to 100% |
| COC(=O)c1nc(-c2ccc([S+](C)[O-])cc2)c(F)cc1Cl (centres unmarked) [F263, Methyl 3-chloro-5-fluoro-6-(4-(methylsulfinyl)phenyl)picolinate] | 0 to 29% |
| COC(=O)c1nc(-c2cc3c(cc2F)OC(F)(F)O3)c(F)cc1OC [F336, Methyl 5-fluoro-3-methoxy-6-(2,2,6-trifluorobenzo[d][1,3]dioxol-5-yl)picolinate] | 30 to 44% |

Same assay, conditions: post-emergence, 336 h, wild oat (Avena fatua), 14 Days After Application, 140 g ai/ha, read-out: Visual Growth Reduction (%) AVEFA

| SMILES | pest or weed control at 140 g/ha |
| --- | --- |
| O=C(OCc1ccccc1C(F)(F)F)c1nc(-c2ccc(C(F)(F)F)cc2Cl)ccc1Cl [F380, 2-(Trifluoromethyl) benzyl 3-chloro-6-(2-chloro-4-(trifluoromethyl)phenyl)picolinate] | 60 to 74% |
| COC(=O)c1nc(-c2ccc([S+](C)[O-])cc2)c(F)cc1Cl (centres unmarked) [F263, Methyl 3-chloro-5-fluoro-6-(4-(methylsulfinyl)phenyl)picolinate] | 0 to 29% |
| COC(=O)c1nc(-c2cc3c(cc2F)OC(F)(F)O3)c(F)cc1OC [F336, Methyl 5-fluoro-3-methoxy-6-(2,2,6-trifluorobenzo[d][1,3]dioxol-5-yl)picolinate] | 0 to 29% |

Same assay, conditions: post-emergence, 336 h, yellow nutsedge (Cyperus esculentus), 14 Days After Application, 140 g ai/ha, read-out: Visual Growth Reduction (%) CYPES

| SMILES | pest or weed control at 140 g/ha |
| --- | --- |
| O=C(OCc1ccccc1C(F)(F)F)c1nc(-c2ccc(C(F)(F)F)cc2Cl)ccc1Cl [F380, 2-(Trifluoromethyl) benzyl 3-chloro-6-(2-chloro-4-(trifluoromethyl)phenyl)picolinate] | 0 to 29% |
| COC(=O)c1nc(-c2ccc([S+](C)[O-])cc2)c(F)cc1Cl (centres unmarked) [F263, Methyl 3-chloro-5-fluoro-6-(4-(methylsulfinyl)phenyl)picolinate] | 0 to 29% |
| COC(=O)c1nc(-c2cc3c(cc2F)OC(F)(F)O3)c(F)cc1OC [F336, Methyl 5-fluoro-3-methoxy-6-(2,2,6-trifluorobenzo[d][1,3]dioxol-5-yl)picolinate] | 0 to 29% |
